From US20260151316A1, “FIBRILLIN PRODUCTION PROMOTER, COSMETIC COMPOSITION OR SKIN TOPICAL AGENT, ORALLY ADMINISTERED AGENT, AND ELASTIN FIBER PRODUCTION PROMOTER” (YAMASA CORPORATION, priority 2022, published 2026)

Key:
[1] = tested on: fibrillin-1 production in normal human fibroblasts (NHDF); assay: Fibrillin-1 quantification by ELISA, direct treatment of normal human fibroblasts with sample; format: cell-based; details: Example 1, FIG. 1 versus FIG. 2 (direct treatment and K-CM)
Experimental: Normal human fibroblasts (NHDF; Kurabo) were seeded in a 96-well plate at a density of 2.55×10^4 cells/well/100 μL and cultured at 37° C. for 24 hours. The medium was then replaced with 100 μL of media (HuMedia-KG2; Kurabo) adjusted to contain 0, 2.5, 5 (mM) (i.e., 0, 0.0918, 0.184 (w/v %) ) of CMP, 2Na and 0, 2.5, 5 (MM) (i.e., 0, 0.092, 0.184 (w/v %) ) of UMP, 2Na, and cultured for 24 hours.
The culture supernatant from normal human fibroblasts was collected and an amount of fibrillin-1 was quantified by ELISA. The protein amount of the culture supernatant was also measured by BCA protein assay.

[2] = tested on: Fibrillin-1 (FBN-1) mRNA in normal human fibroblasts; assay: FBN-1 mRNA expression by real time PCR in fibroblasts treated with culture supernatant from three-dimensional cultured epidermis; format: cell-based; details: CMP, 2Na 1.0 and 2.0 (w/v %) applied to three-dimensional cultured epidermis; supernatant on NHDF; GAPDH as control
Experimental: The mRNA expression level of Fibrillin 1(FBN1 ), a factor related to elastin synthesis, was quantified by real-time PCR. Three-dimensional cultured epidermis (LabCyte EPI MODEL 24; manufactured by J TEC) was set in a 24-well plate to which 500 μL of the attached assay medium was added, and conditioned overnight at 37° C. 50 μL of sample-containing PBS (−) was applied from the stratum corneum side and cultured for 24 hours. After removing the sample-containing PBS (−), the plate was washed with PBS (−). The medium was replaced with a fresh medium, 50 μL of sample-containing PBS (−) was newly applied from the stratum corneum side, and further cultured for 48 hours. After culturing, the culture supernatant was collected. The concentrations of CMP, 2Na in the respective samples were 0, 1.0, and 2.0 (w/v %), respectively. Normal human fibroblasts were treated with the culture supernatant by the same method as that of Example 1. RNA was extracted from NHDF using RNeasy Mini Kit (QIAGEN), and mRNA expression analysis for Fibrillin-1 (FBN-1) was performed by real time PCR ([…]). Glyceraldehyde 3-phosphate dehydrogenase (GAPDH) was used as an endogenous control.

[3] = tested on: elastin fibers in freshly extracted human skin; assay: Ex vivo evaluation test using freshly extracted human skin, elastica-van Gieson staining of elastin fibers; details: abdominal skin, CMP, 2Na 1.0 and 2.0 (w/v %) applied from the stratum corneum side, 72 hours
Experimental: Abdominal skin tissue was used, which was taken from a patient during cosmetic surgery, after obtaining informed consent for use in research. The extracted skin was placed in a culture plate supplemented with 1.3 ml of D-MEM/Ham's F-12 medium, and conditioned overnight at 37° C. in 5% CO2. An appropriate amount of PBS (−) containing a given concentration of each sample was applied from the stratum corneum side, and further cultured for 24 hours. The treatment was continued for a total of 72 hours while replacing the sample and medium with fresh ones every 24 hours. The concentrations of CMP, 2Na in the respective samples were 0, 1.0, and 2.0 (w/v %). After the cultured skin tissue was fixed according to a standard method, skin tissue sections were prepared, elastin fibers were stained with elastica-van Gieson stain, and observed under a microscope.

SMILES | effect of promoting fibrillin production, cytidylic acid treatment compared with uridylic acid treatment [1] | expression level of FBN-1 mRNA [2] | density of elastin fibers (elastica-van Gieson staining) [3]
O=c1ccn([C@@H]2O[C@H](COP(=O)(O)O)[C@@H](O)[C@H]2O)c(=O)[nH]1 [uridylic acid] | comparable |  | 
Nc1ccn([C@@H]2O[C@H](COP(=O)(O)O)[C@@H](O)[C@H]2O)c(=O)n1 [cytidylic acid] | comparable | increased, depending on the concentration | tended to result in denser elastin fibers
